Read-outs that look alike come from different tables or passages of the source.
Experiments:
[1] = Cytotoxicity MTT assay in C8166 cells; type: cell-based; settings: human
HIV-1IIIB [2] = test: microbe, parasite or virus in culture; type: cell-based; settings: Human immunodeficiency virus 1, MT4, MTT
HIV-1IIIB [3] = test: HIV-1IIIB-induced cytopathic effect (syncytia counting) in C8166 cells; settings: Human immunodeficiency virus 1, C8166
NL4-3IN-R263K = test: microbe, parasite or virus in culture; type: cell-based; settings: Human immunodeficiency virus 1
[4] = Cytotoxicity MTT assay in PBMCs; type: cell-based; settings: human, peripheral blood mononuclear cells (PBMCs), PBMC
HIV-1WAN (CRF01_AE) = test: microbe, parasite or virus in culture; settings: Human immunodeficiency virus 1, PBMC
HIV-1KIZ011 (CRF07_BC) = test: microbe, parasite or virus in culture; settings: Human immunodeficiency virus 1, PBMC
HIV-1IIIB [5] = test: qPCR determination of Late-RT, 2-LTR and Alu-LTR in infected C8166 cells; type: cell-based; settings: for Late-RT level versus positive control (PC) group: C8166, HIV-1IIIB MOI 0.5, 100 nM ACC017, 4-8 h; for 2-LTR level (nuclear entry): C8166, HIV-1IIIB MOI 0.5, 100 nM ACC017, 8, 12, 24 h; for Alu-LTR level (integrated provirus): C8166, HIV-1IIIB MOI 0.5, 100 nM ACC017, 24 h, nested PCR
HIV-1A17 = test: microbe, parasite or virus in culture; settings: Human immunodeficiency virus 1, C8166
HIV-1TC-1 (CRF01_AE) = test: microbe, parasite or virus in culture; settings: Human immunodeficiency virus 1, PBMC
HIV-1_4755-5 = test: microbe, parasite or virus in culture; settings: Human immunodeficiency virus 1, C8166
HIV-1IIIB [6] = test: microbe, parasite or virus in culture; settings: Human immunodeficiency virus 1, C8166, HIV-1IIIB
HIV-1IIIB [7] = test: Combined antiviral activity assay (p24 ELISA, CompuSyn); type: cell-based
HIV-1DRACC017 = test: microbe, parasite or virus in culture; type: cell-based; settings: for EC50: Human immunodeficiency virus 1, HIV-1DRACC017, p24
[8] = system: pNL4-3gp41(36G) V38A, N42T; settings: C8166, p24
[9] = Cytotoxicity MTT assay in MT4 cells; type: cell-based; settings: human
NL4-3 = test: microbe, parasite or virus in culture; type: cell-based; settings: Human immunodeficiency virus 1, NL43; NL4-3, p24
[10] = p24 (Table 4, resistance study)

C[C@@H]1CCO[C@H]2Cn3cc(C(=O)NCc4ccc(F)cc4F)c(=O)c(O)c3C(=O)N12 [DTG, Dolutegravir]
CC50 at 3 d [1]: 20340 ± 70 nM
EC50 (HIV-1IIIB [2]): 0.05144 ± 0.00014 nM
EC50 (HIV-1IIIB [3]): 0.73 ± 0.02 nM
EC50 (NL4-3IN-R263K): 32.2 ± 3.74 nM
CC50 at 7 d [4]: 14600 nM
EC50 (HIV-1WAN (CRF01_AE)): 8.23 ± 0.2 nM
EC50 (HIV-1KIZ011 (CRF07_BC)): 0.28 ± 0.03 nM
Late-RT level versus positive control (PC) group (HIV-1IIIB [5]): no significant difference compared with the PC group
2-LTR level (nuclear entry) (HIV-1IIIB [5]): unable to block the nuclear entry process
Alu-LTR level (integrated provirus) (HIV-1IIIB [5]): significantly reduced
EC50 (HIV-1A17): 4.78 ± 5.13 nM
EC50 (HIV-1TC-1 (CRF01_AE)): 0.31 ± 0.18 nM
EC50 (HIV-1_4755-5): 9.96 ± 2.78 nM
EC50 (HIV-1IIIB [6]; C8166, p24 (Table 1)): 0.64 ± 0.07 nM
EC50 (HIV-1IIIB [6]; C8166, p24, 20% human serum): 33.6 ± 5.9 nM
EC50 (HIV-1IIIB [6]; [10]): 1.18 ± 0.15 nM
DRI Value ED75 (HIV-1IIIB [7]; combination ACC017 + DTG): 1.40
DRI Value ED90 (HIV-1IIIB [7]; combination ACC017 + DTG): 1.40
DRI Value ED95 (HIV-1IIIB [7]; combination ACC017 + DTG): 1.60
DRI Value ED75 (HIV-1IIIB [7]; combination DTG + 3TC): 3.00
DRI Value ED90 (HIV-1IIIB [7]; combination DTG + 3TC): 4.01
DRI Value ED95 (HIV-1IIIB [7]; combination DTG + 3TC): 4.98
DRI Value ED75 (HIV-1IIIB [7]; combination DTG + ACC007): 3.00
DRI Value ED90 (HIV-1IIIB [7]; combination DTG + ACC007): 4.13
DRI Value ED95 (HIV-1IIIB [7]; combination DTG + ACC007): 5.21
DRI Value ED75 (HIV-1IIIB [7]; combination DTG + FTC + TAF): 3.25
DRI Value ED90 (HIV-1IIIB [7]; combination DTG + FTC + TAF): 4.37
DRI Value ED95 (HIV-1IIIB [7]; combination DTG + FTC + TAF): 5.41
EC50 (HIV-1DRACC017): > 5000 nM
EC50 [8]: 1.95 ± 0.12 nM
CC50 at 3 d [9]: 24910 ± 10 nM
EC50 (NL4-3): 2.41 ± 0.43 nM

O=C1Nc2ccc(Cl)cc2[C@@](C#CC2CC2)(C(F)(F)F)O1 [EFV, Efavirenz]
EC50 (NL4-3IN-R263K; read-out: EC50): 1.62 ± 0.31 nM
Late-RT level versus positive control (PC) group (HIV-1IIIB [5]): significantly lower than that in the PC group
2-LTR level (nuclear entry) (HIV-1IIIB [5]): barely detected
Alu-LTR level (integrated provirus) (HIV-1IIIB [5]): almost undetectable
EC50 (HIV-1IIIB [6]; [10]): 0.6 ± 0.18 nM
EC50 (HIV-1DRACC017): 1.24 ± 0.22 nM
FC (Fold Change) EC50 (HIV-1DRACC017)/EC50 (HIV-1IIIB) (HIV-1DRACC017; p24): 2.07
EC50 (NL4-3): 1.51 ± 0.48 nM

Nc1nc(=O)n([C@@H]2CS[C@H](CO)O2)cc1F [FTC, Emtricitabine]
DRI Value ED75 (HIV-1IIIB [7]; combination ACC017 + FTC + TAF): 7.82
DRI Value ED90 (HIV-1IIIB [7]; combination ACC017 + FTC + TAF): 12.57
DRI Value ED95 (HIV-1IIIB [7]; combination ACC017 + FTC + TAF): 17.41
DRI Value ED75 (HIV-1IIIB [7]; combination DTG + FTC + TAF): 7.15
DRI Value ED90 (HIV-1IIIB [7]; combination DTG + FTC + TAF): 12.20
DRI Value ED95 (HIV-1IIIB [7]; combination DTG + FTC + TAF): 17.77

CC(C)OC(=O)[C@H](C)N[P@](=O)(CO[C@H](C)Cn1cnc2c(N)ncnc21)Oc1ccccc1 [TAF, Tenofovir alafenamide]
DRI Value ED75 (HIV-1IIIB [7]; combination ACC017 + FTC + TAF): 4.78
DRI Value ED90 (HIV-1IIIB [7]; combination ACC017 + FTC + TAF): 6.99
DRI Value ED95 (HIV-1IIIB [7]; combination ACC017 + FTC + TAF): 8.96
DRI Value ED75 (HIV-1IIIB [7]; combination DTG + FTC + TAF): 4.40
DRI Value ED90 (HIV-1IIIB [7]; combination DTG + FTC + TAF): 6.33
DRI Value ED95 (HIV-1IIIB [7]; combination DTG + FTC + TAF): 8.18

From publication PMC12846677 (Viruses, 2025)
